Paper PMC10094510, “Novel Cannabinoid Receptor 2 (CB2) Low Lipophilicity Agonists Produce Distinct cAMP and Arrestin Signalling Kinetics without Bias” (International Journal of Molecular Sciences, 2023)

What was measured:
human CB2 [1] = target: T1, human CB2 (Homo sapiens, UniProt P34972, Q63R); test: Competition radioligand binding assay ([3H]-CP55,940), hCB2 membranes; settings: for CB2/CB1 Selectivity: CB2 selectivity relative to CB1, from Ki (or Kd); for displacement of [3H]-CP55,940 from CB2: full displacement = ≥ 75% relative to 1 µM CP55,940
T1 construct: HA (N); 3TCS (N); expressed in transfected cells; host or cells: HEK-293S cells, transient transfection (PEI max)
Method: (§1) The concentration of DMSO was kept equivalent across all test conditions. All dilutions were dispensed into a 96-well, polypropylene V-bottom plate (Gene Era Biotech, Hangzhou, China). […] All conditions were carried out in technical duplicate. The plate was then sealed, tap-mixed, then incubated at 30 °C for 1 h. A total of 50 µL of 0.1% PEI (Sigma-Aldrich, St. Louis, MI, USA) in MQ water was added to each well of a 96-well GF/C harvest plate (Perkin Elmer) 1 h prior to the harvest. When the incubation finished, vacuum (~5 mmHg) was applied to the harvest plate and wells were washed (50 mM HEPES pH 7.4, 500 mM NaCl, 1 mg/mL BSA, MQ water, ice cold). Subsequently, the contents of the V-bottom plate were transferred to corresponding wells in the harvest plate, wash buffer was used to wash the remaining contents of the V-bottom wells before transferring this to the harvest plate, then the harvest plate was washed an additional three times. The plate was dried for ~24 h at 24 °C. To prepare for reading, the bottom of the plate was sealed, each well received 50 µL of Irgasafe Plus scintillation fluid (Perkin Elmer), followed by sealing the top of the plate. Plates were read in a Wallac MicroBeta® TriLux Liquid Scintillation Counter (Perkin Elmer) with a read time of 2 min/well.
(§2) GraphPad Prism (v8.0.2; GraphPad Software, San Diego, CA, USA) was used to fit nonlinear regression curves (One site—Fit Ki) to the corrected counts per minutes (CCPM) of each displacer to determine their pKi (negative log Ki). […] Mean and SEM of pKi values were calculated from independent experiments. […] CB2 selectivity was calculated as […].

human CB1 = target: T2, human CB1 (Homo sapiens, UniProt P21554); test: Competition radioligand binding assay ([3H]-CP55,940), hCB1 membranes
T2 construct: pplss (N); 3HA (N); expressed in transfected cells
Method: as §1, with “Preparation of hCB1- and hCB2-membranes from a HEK pplss-3HA-hCB1 cell line and HEK Flp-in HA-3TCS-hCB2 63R cell line, respectively, followed the protocol described previously. […] The concentration” for “The concentration”
as §2

human CB2 [2] = target: T1, human CB2; test: Real-time BRET β-arrestin-2 plasma membrane translocation, HEK-293S cells transfected with human CB2; type: cell-based; settings: for β-arrestin-2 translocation ΔEmax (% increase above V): normalised to vehicle 100%
Method: (§3) HEK-293S cells (HEK-S; generously provided by Professor David Poyner, Aston Research Centre, RRID:CVCL_A784 [48]) were maintained in T75 flasks (Corning-Costar) with Dulbecco’s Modified Eagle’s Medium high glucose with phenol red, L-glutamine and sodium pyruvate (DMEM; Cytiva SH30243), and 8% foetal bovine serum (FBS; NZ-origin, Moregate Biotech) at 37 °C in a humidified atmosphere containing 5% CO2.
(§4) Poly-D-Lysine (PDL) (Sigma-Aldrich) at 0.05 mg/mL in PBS was incubated in wells of 96-well Solid White Flat Bottom Polystyrene TC-treated Microplate (Corning-Costar) at 37 °C for 1 h, then washed with PBS prior to seeding and transfection. Cells were seeded at 45,000 cells/well in DMEM supplemented with 12% FBS.
(§5) Plasmids encoding human CB2 (HA-3TCS-hCB2 63R pcDNA5/FRT; 28.5 ng per well) or no receptor (pcDNA5/FRT/CAT; 23.5 ng per well; Thermo Fisher Scientific, Waltham, MA, USA), and either His-CAMYEL (in pcDNA3L; 24 ng per well; ATCC MBA-277; previously described in [49]), or a mix of Rluc8-hβ-arrestin2-Sp1 (in pcDNA3; 0.5 ng per well; previously described in [19]) and Mem-linker-Citrine-SH3 (in pcDNA3; 20 ng per well; previously described in [19, 50]) were diluted in DMEM. Diluted DNA was then co-incubated with polyethyleneimine max (PEI max; Polysciences, Warrington, PA, USA) (Total DNA:PEI ratio of 1:7.5 or 1:6.7 for cAMP or β-arrestin-2 experiments, respectively) in DMEM for 1 h at room temperature (~19–21 °C). These transfection mixes were then added to plated cells, resulting in a final concentration of 8% FBS. Plates were incubated for ~48 h before assaying.
(§6) The protocol for measuring levels of cellular cAMP via real-time BRET biosensor (CAMYEL) is adapted from previous publications. In all cAMP experiments, forskolin (Tocris Bioscience, Bristol, UK) was used to stimulate the activation of adenylyl cyclase to raise intracellular cAMP levels. Vehicle (DMSO) was maintained at an equivalent concentration across all conditions. Assays were carried out in technical duplicate. Then, ~48 h post-transfection, plating media was aspirated, and wells were washed with H+B, consisting of HBSS (Life Technologies) and 1 mg/mL BSA (ICPbio). H+B was then added to the wells to initiate a 30 min serum starve at 37 °C. Post-serum starve, coelenterazine h (final concentration 5 μM, NanoLight Technologies, Norman, OK, USA, #301) was added to the wells, and a 5 min pre-reading was conducted using the LUMIstar® Omega luminometer (Rluc and YFP emissions detected at 460 nm and 535 nm, respectively; BMG Labtech, Ortenberg, Germany). Next, forskolin (final concentration 5 μM) was added to all wells (except vehicle-only wells which received DMSO), and plate reading resumed for 5 min. Lastly, CB2 compounds of interest with forskolin, vehicle with forskolin, or vehicle without forskolin, were added to their respective wells, and a final 20 min read was conducted. All compounds and reagents were diluted in H+B prior to addition to the plate. For β-arrestin-2 recruitment assays, an equivalent procedure was followed except no forskolin was included in the assay stimulations.
(§7) BRET ratios were calculated by dividing YFP emissions by Rluc emissions, then for the cAMP assay, normalised to the mean of baseline ratio reads (where only coelenterazine h was present) to eliminate any variability present prior to drug addiction. An increase in BRET ratio indicated a decrease in cAMP levels or increase in β-arrestin-2 recruitment. Lowess smoothing (GraphPad Prism) was applied to individual technical replicates within an assay. Concentration response curves for the mean of technical replicates (CRC; “log(agonist) vs. response (three parameters)” nonlinear regression curve model, Hill slope constrained to 1) were drawn for the mean ratios over 20 min stimulation or individual time-points.

human CB2 [3] = target: T1, human CB2; test: Real-time BRET CAMYEL cAMP biosensor, forskolin-stimulated HEK-293S cells transfected with human CB2; type: cell-based; settings: for 2.5 min EC75 concentration (log[compound] M): cAMP assay, calculated from mean EC50 at 2.5 min, Figure S1; for time of peak cAMP response (maximal efficacy): during 20 min stimulation; for time of peak cAMP response (maximal efficacy) / cAMP ΔEmax (absolute magnitude percentage decrease from 100%): 5 μM forskolin; for decrease in cAMP pEC50 in comparison with CP55,940 / cAMP ΔEmax (absolute magnitude percentage decrease from 100%): mean over 20 min stimulation; for cAMP ΔEmax (absolute magnitude percentage decrease from 100%): normalised to V 0% and F 100%
Method: as §3, §4, §5, §6, §7

CB2 = system: CB2; set-up: method as in PMID 31024316; settings: cited from earlier work

T1 sequence (P34972 whole entry Q63R): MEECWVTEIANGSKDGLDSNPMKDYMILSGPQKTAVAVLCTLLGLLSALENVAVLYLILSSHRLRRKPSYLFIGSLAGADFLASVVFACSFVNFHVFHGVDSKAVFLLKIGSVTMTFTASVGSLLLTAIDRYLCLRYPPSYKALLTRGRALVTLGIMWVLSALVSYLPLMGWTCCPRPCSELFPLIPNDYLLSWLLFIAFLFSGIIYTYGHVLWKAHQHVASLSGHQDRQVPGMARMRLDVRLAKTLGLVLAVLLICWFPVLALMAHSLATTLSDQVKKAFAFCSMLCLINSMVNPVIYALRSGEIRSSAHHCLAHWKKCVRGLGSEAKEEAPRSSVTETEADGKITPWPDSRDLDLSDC
T2 sequence (P21554 whole entry): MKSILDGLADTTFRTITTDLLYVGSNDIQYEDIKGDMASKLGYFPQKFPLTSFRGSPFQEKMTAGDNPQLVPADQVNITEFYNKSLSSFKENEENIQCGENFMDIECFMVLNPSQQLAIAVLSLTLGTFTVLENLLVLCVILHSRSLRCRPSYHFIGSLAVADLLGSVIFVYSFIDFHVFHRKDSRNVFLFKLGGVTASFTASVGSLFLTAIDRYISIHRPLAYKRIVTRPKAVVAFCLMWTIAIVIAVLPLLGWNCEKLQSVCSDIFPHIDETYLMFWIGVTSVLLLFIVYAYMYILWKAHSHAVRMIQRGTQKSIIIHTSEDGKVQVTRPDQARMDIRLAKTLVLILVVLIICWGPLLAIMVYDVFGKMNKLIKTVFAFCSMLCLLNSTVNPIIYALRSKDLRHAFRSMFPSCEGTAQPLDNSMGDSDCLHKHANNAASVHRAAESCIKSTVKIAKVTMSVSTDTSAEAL

Row | Structure (SMILES) | Ki (human CB2 [1]) [nM] | CB2/CB1 Selectivity (human CB2 [1]) | displacement of [3H]-CP55,940 from CB2 (human CB2 [1]) | Ki (human CB1) [µM] | EC50 (human CB2 [2]) [nM] | β-arrestin-2 translocation ΔEmax (% increase above V) (human CB2 [2]; mean over 20 min stimulation) | EC50 (human CB2 [3]) [nM] | 2.5 min EC75 concentration (log[compound] M) (human CB2 [3]) [log M] | time of peak cAMP response (maximal efficacy) (human CB2 [3]) | decrease in cAMP pEC50 in comparison with CP55,940 (human CB2 [3]) | cAMP ΔEmax (absolute magnitude percentage decrease from 100%) (human CB2 [3]) | further results
1 | CCc1c(C)cc(C(=O)NC2(C(=O)NCCOCCOCCOCCO)CCCCC2)c(=O)n1Cc1ccc(F)cc1 [UOSS76] | 813 | ~40 | fully displaced | ~29.5 | 631 | 7.9 ± 1.2% | 100 | -6.9 | around 4.5 min | ~ 1.0 log units | 26.1 ± 3.6% | reduction of CB2 pKi vs. UOSS77 (human CB2 [1]; p = 0.015): 0.6 log units; smaller β-arrestin-2 pEC50 than CP55,940 (human CB2 [2]; mean over 20 min stimulation): ~ 1.0 log units; weaker β-arrestin-2 potency than UOSS77 (human CB2 [2]; mean over 20 min stimulation): ~ 0.7 log units; decrease of cAMP response potency during the early phase of stimulation (human CB2 [3]; not significant vs 4.5 min): ~ 0.7 log units
2 | CCCCCCC(C)(C)c1ccc([C@@H]2C[C@H](O)CC[C@H]2CCCO)c(O)c1 [CP55,940, reference compound] | – | – | – | – | – | 17.6% ± 0.8% | – | -7.3 | ≤ 2.5 min | – | 35.1% ± 3.5% | time to plateau of β-arrestin-2 efficacy (human CB2 [2]; 20 min stimulation): approximately 5 min; overall increase of β-arrestin-2 response potency during the stimulation (human CB2 [2]; 20 min stimulation, vs 1.5 min): ~ 0.7 log units; increase of cAMP response potency during the acute 5 min period (human CB2 [3]; not significant vs 2.5 min): ~ 0.5 log units
3 | O=C(N[C@H]1CC[C@@H](O)CC1)c1cc2cccnc2n(CCN2CCOCC2)c1=O [UOMM18] | 724 | >126 | – | > 100 | 126 | 7.3 ± 0.6% | 63.1 | -7.1 | 2.5 min | ~ 0.8 log units | 28.0 ± 2.4% | CB2 affinity lower than pKd of CP55,940 (human CB2 [1]; p < 0.0001): ~ 2.5 log units; displacement of [3H]-CP55,940 at CB1 (human CB1; highest applied concentration 31.6 µM): did not detectably displace; agonist type for β-arrestin-2 translocation (human CB2 [2]; relative to CP55,940): partial agonist
4 | CCc1c(C)cc(C(=O)NC2(C(=O)NCCOCCOCCO)CCCCC2)c(=O)n1Cc1ccc(F)cc1 [UOSS75] | 148 | ~100 | fully displaced | ~15.1 | 100 | 8.5 ± 0.7% | 10 | -7.6 | 2.5 min | – | 31.4 ± 3.9% | –
5 | Cc1c(C(=O)c2cccc3ccccc23)c2cccc3c2n1[C@H](CN1CCOCC1)CO3 [WIN55,212-2] | – | – | – | – | – | – | – | – | – | – | – | agonist type for β-arrestin-2 recruitment to CB2 in comparison with CP55,940 (CB2): weak partial agonist
